Test results: patent US12371454B2, “Cyclic peptide compound having Kras inhibitory action” (priority 2019, dated 2025)
Starred links: 1 amine or outer side, 2 acyl side, 3 side chain; linkers in the order of their positions; H or OH if unused. Positions of bridges follow the written chain, without caps; N, C: chain ends. Non-standard residues stand in square brackets, D forms with d. Residues, ends and D or L forms follow the SMILES beside them. *: point of attachment. hPhe(3-Cl-4-CF3) = N[C@@H](CCc1ccc(C(F)(F)F)c(Cl)c1)C(=O)O; NMeDab(N,N-(CH2CF2CH2)) = CN[C@@H](CCN1CC(F)(F)C1)C(=O)O; ACHC(1R,2R) = O=C([C@@H]1CCCC[C@H]1N[*:1])[*:2]; NMeAbu(4,4,4-F3) = CN[C@@H](CC(F)(F)F)C(=O)O; NMePhe(4-Cl) = CN[C@@H](Cc1ccc(Cl)cc1)C(=O)O; NMePhe(2-OMe) = CN[C@@H](Cc1ccccc1OC)C(=O)O; NMePhe(3-F) = CN[C@@H](Cc1cccc(F)c1)C(=O)O; Phe(3-I) = N[C@@H](Cc1cccc(I)c1)C(=O)O; Pro(4,4-F2) = O=C(O)[C@@H]1CC(F)(F)CN1; NMeCha = CN[C@@H](CC1CCCCC1)C(=O)O; NMeChg = CN[C@H](C(=O)O)C1CCCCC1; NMeD = CN[C@@H](CC(=O)O)C(=O)O; NMeL = CN[C@@H](CC(C)C)C(=O)O; NMeV = CN[C@H](C(=O)O)C(C)C; d(β3hA) = C[C@@H](N)CC(=O)O; dPip = O=C(O)[C@H]1CCCCN1; NMeA = CN[C@@H](C)C(=O)O; Nle = CCCC[C@H](N)C(=O)O; Piperidide = C1CCN(*)CC1; Pyrrolidide = C1CCN(*)C1; Ac5c = NC1(C(=O)O)CCCC1; Sar = CNCC(=O)O; Propyl = CCC*

These molecules were tested against T1, Kras and SOS1 (biotin-tagged human Kras loaded with GDP, His-tagged human SOS1) (Homo sapiens, UniProt P01116, G12D) (assay: Protein-protein interaction inhibition between Kras and SOS1 (KrasGl2D-SOS PPI) using AlphaScreen). Details: AlphaScreen; biotin-tagged human Kras loaded with GDP, His-tagged human SOS1; read-out: KRAS G12D-SOS PPI IC50.
T1 construct: made in house; host or cells: E. coli (stated for Kras only)
T1 sequence (P01116 1-188 isoform P01116-2 G12D): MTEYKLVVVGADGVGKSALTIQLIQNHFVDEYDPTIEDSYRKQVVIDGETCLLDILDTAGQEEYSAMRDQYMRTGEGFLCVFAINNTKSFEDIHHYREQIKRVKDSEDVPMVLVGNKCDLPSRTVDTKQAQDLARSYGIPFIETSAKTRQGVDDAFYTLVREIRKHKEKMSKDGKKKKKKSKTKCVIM
Type: binding
How it was run: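 Binding between SOS1 and Kras is detected as bead-proximity luminescence: illuminate Ni-conjugated donors (680 nm), collect 520-620 nm emission from streptavidin-conjugated acceptors; Kras carries biotin and GDP loaded after purification, SOS1 carries a His tag.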

| Compound | IC50 [nM] |
| --- | --- |
| CC[C@H](C)[C@@H]1NC(=O)[C@H](C)N(C)C(=O)C[C@@H](C)NC(=O)[C@H](C(C)C)N(C)C(=O)C2(CCCC2)NC(=O)[C@@H]2CCCN2C(=O)[C@H](CCc2ccc(C(F)(F)F)c(Cl)c2)NC(=O)[C@H]2CCCCN2C(=O)[C@H](CC2CCCCC2)N(C)C(=O)[C@@H]2CCCN2C(=O)CN(C)C1=O [Compound 834] (cyclo([Ac5c][NMeV][d(β3hA)][NMeA]I[Sar]P[NMeCha][dPip][hPhe(3-Cl-4-CF3)]P)) | 57 |
| CC[C@H](C)[C@@H]1NC(=O)[C@H](CC(C)C)N(C)C(=O)C[C@@H](C)NC(=O)[C@H](C(C)C)N(C)C(=O)C2(CCCC2)NC(=O)[C@@H]2CCCN2C(=O)[C@H](CCc2ccc(C(F)(F)F)c(Cl)c2)NC(=O)CN(C)C(=O)[C@H](Cc2cccc(F)c2)N(C)C(=O)CN(C)C(=O)CN(C)C1=O [Compound 1556] (cyclo([Ac5c][NMeV][d(β3hA)][NMeL]I[Sar][Sar][NMePhe(3-F)][Sar][hPhe(3-Cl-4-CF3)]P)) | 17 |
| CC[C@H](C)[C@@H]1NC(=O)[C@H](CC(C)C)NC(=O)[C@@H]2CCCC[C@H]2NC(=O)[C@H](C(C)C)N(C)C(=O)C2(CCCC2)NC(=O)[C@@H]2CCCN2C(=O)[C@H](CCc2ccc(C(F)(F)F)c(Cl)c2)NC(=O)CN(C)C(=O)[C@H](CC2CCCCC2)N(C)C(=O)CN(C)C(=O)CN(C)C1=O [Compound 569] (cyclo([Ac5c][NMeV][ACHC(1R,2R)]LI[Sar][Sar][NMeCha][Sar][hPhe(3-Cl-4-CF3)]P)) | 73 |
| CC[C@H](C)[C@@H]1NC(=O)[C@H](CC(C)C)N(C)C(=O)C[C@@H](C)NC(=O)[C@H](C(C)C)N(C)C(=O)C2(CCCC2)NC(=O)[C@@H]2CCCN2C(=O)[C@H](CCc2ccc(C(F)(F)F)c(Cl)c2)NC(=O)CN(C)C(=O)[C@H](CC2CCCCC2)N(C)C(=O)CN(C)C(=O)[C@@H]2CCCN2C1=O [Compound 185] (cyclo([Ac5c][NMeV][d(β3hA)][NMeL]IP[Sar][NMeCha][Sar][hPhe(3-Cl-4-CF3)]P)) | 170 |
| CC[C@H](C)[C@@H]1NC(=O)[C@H](CC(F)(F)F)N(C)C(=O)C[C@@H](C(=O)N2CCCC2)N(C)C(=O)[C@H](C2CCCCC2)N(C)C(=O)C2(CCCC2)NC(=O)[C@@H]2CC(F)(F)CN2C(=O)[C@H](CCc2ccc(C(F)(F)F)c(Cl)c2)NC(=O)CN(C)C(=O)[C@H](CC2CCCCC2)N(C)C(=O)CN(C)C(=O)CN(C)C1=O [Compound 1357] ([NMeAbu(4,4,4-F3)]I[Sar][Sar][NMeCha][Sar][hPhe(3-Cl-4-CF3)][Pro(4,4-F2)][Ac5c][NMeChg][NMeD]-Pyrrolidide; lactam N-11) | 0.52 |
| CCCC[C@@H]1NC(=O)[C@H](Cc2cccc(I)c2)NC(=O)CN(C)C(=O)[C@H](Cc2ccc(Cl)cc2)N(C)C(=O)CN(C)C(=O)CN(C)C(=O)[C@H]([C@@H](C)CC)NC(=O)[C@H](CC(C)C)N(C)C(=O)C[C@@H](C(=O)N2CCCCC2)N(C)C(=O)[C@H](CC(C)C)NC(=O)[C@H](Cc2ccccc2OC)N(C)C1=O [Compound 259] ([NMeL]I[Sar][Sar][NMePhe(4-Cl)][Sar][Phe(3-I)][Nle][NMePhe(2-OMe)]L[NMeD]-Piperidide; lactam N-11) | 21 |
| CCCOC[C@@H]1NC(=O)[C@H](CCN2CC(F)(F)C2)N(C)C(=O)[C@H](CCc2ccc(C(F)(F)F)c(Cl)c2)NC(=O)CN(C)C(=O)[C@H](CC2CCCCC2)N(C)C(=O)CN(C)C(=O)CN(C)C(=O)[C@H]([C@@H](C)CC)NC(=O)[C@H](C)N(C)C(=O)C[C@@H](C(=O)N2CCCCC2)N(C)C(=O)[C@H](C(C)C)N(C)C1=O [Compound 154] ([NMeA]I[Sar][Sar][NMeCha][Sar][hPhe(3-Cl-4-CF3)][NMeDab(N,N-(CH2CF2CH2))]S(Propyl)[NMeV][NMeD]-Piperidide; lactam N-11) | 4.8 |
